Like-named read-outs stand apart in the source and are kept apart here.
Experiments:
[1] = system: Tumor cells (Ehrlich ascitic tumor); experiment: In vivo biosynthesis of DNA, RNA and protein in tumor cells; design: species or system mice; conditions: for Incorporation of 2-^14 C-leucine in protein / Incorporation of 2-^14 C-thymidine in DNA: intraperitoneal 100 mg/kg; for inhibition at 100 mg/kg: Mus musculus, Ehrlich
Method: (§1) The influence of giniquine on biosynthetic processes in the in vivo tests was studied on common white mice of a mass of 25-35 g with Ehrlich ascitic tumor.
(§2) The mice were divided into two groups. The animals in the first group were given a single injection of the preparation in differing doses, and the animals in the second group were treated with distilled water. Three series of experiments were conducted. In the first series of tests (16 mice) the preparation was injected in a dose of 100 mg/kg ([…] dose), and the animals were decapitated one hour after the injection; in the second test series (16 mice) the animals were slaughtered 3 hours after the injection with other conditions being the same. In the third test series (35 mice) the influence of giniquine on plastic metabolism in tumor cells and normal tissues was studied 24 hours after the injection of a 0.33% solution of the preparation in a dose of 28 mg/kg (therapeutical dose).
(§3) Labeled precursors of nucleic acids and protein were injected intraperitoneally one hour before the slaughter of the animals (50 μc/100 g). Ascitic fluid, as well as liver and spleen, mucous membrane of small intestine, brain, kidneys and lungs were taken for analysis. 10% suspension was prepared from tumor cells, and 10% homogenates were prepared from tissues in a physiological solution.
(§4) Tumor cells and tissue homogenates for precipitation of nucleic acids were treated with 57% perchloric acid (10:1). Acid-soluble fraction was removed by washing the precipitate twice with 5 ml of 5% perchloic acid with subsequent centrifuging at 2000 g. Nucleic acids were hydrolyzed by the Schneider method. Radioactivity of DNA and RNA fractions was measured by means of a liquid scintillation counter. The quantity of DNA and RNA was determined by spectrophotometry: the quantity of DNA was determined with diphenylamine, and RNA- with orcin.
(§5) To prepare protein hydrolysate, the suspension of tumoral cells and homogenates of normal tissues were treated with cool 10% trichloracetic acid (1:4), with subsequent centrifuging at 2000 g for ten minutes. The precipitate was washed twice with 5 ml of 10% trichloracetic acid. Lipoids were removed by a consecutive treatment of the precipitate with ethanol, saturated solution of sodium acetate, a mixture of ethanol and ether (3:1) and ether. To prepare protein hyhdrolysate, 4 ml of 0.3N KOH were added to the precipitate, and the mixture was placed into a thermostatic chamber at 37° C. for 60 minutes. The radioactivity was measured by means of a liquid scintillation counter. Protein was quantitatively determined by spectrophotometry using a microbiuret reaction.

[2] = system: lymphatic leukemia L 5178Y; experiment: Antitumor activity, lymphatic leukemia L 5178Y; assay type: in vivo, mice
Method: Apart from the tests on Ehrlich ascitic tumor, giniquine was studied on twelve more inoculated tumors. Seven tumors (melanoma B16, sarcoma AK, large intestine carcinoma acatol-1, sarcoma 180, adenocarcinoma 755, Lewis lung carcinoma and sarcoma 37) were inoculated subcutaneously with 50 mg of tumoral cells per mouse. Four tumors (lymphatic leukemies L 5178, L 5178Y, L 1210 and P-388) were inoculated intraperitoneally with 10^6 cells per mouse. One tumor (La, hemocytoblastosis) was inoculated intraperitoneally by injecting 50 mg of cell suspension of spleen and liver of mice suffering La hemocytoblastosis, per mouse. Giniquine was injected intraperitoneally five times for seven days: 1,2,3,4,7 days or 3,4,5,6,7 days after the implantation of tumor. The rate of deceleration of the tumor growth was established 14 days after the ultimate injection of giniquine; life of test animals was recorded for 60 days.

Liver = experiment: In vivo biosynthesis of DNA, RNA and protein in liver; design: species or system mice; conditions: for Incorporation of 2-^14 C-leucine in protein / Incorporation of 2-^14 C-thymidine in DNA: intraperitoneal 100 mg/kg; for inhibition at 100 mg/kg: Mus musculus, three hours
Method: as §1, §2, §3, §4, §5

[3] = system: cells of Ehrlich ascitic tumor; experiment: In vitro incorporation of labeled precursors into DNA, RNA and protein of Ehrlich ascitic tumor cells; assay type: cell-based, mice; conditions: for activity at 100 µM: 1 h, 1.10^-4 M
Method: The effect of giniquine on biosynthesis of molecules in the in vitro tests was studied with suspensions of cells of Ehrlich ascitic tumor. The tests were conducted with common white mice of a mass of 18-20 g. Ascites was taken 7-8 days after the inoculation, dissolved with a cool Eagle medium (pH 7.4) containing 0.1% of heparin, and the cells were precipitated by centrifuging at 600 g. The cells were washed twice with the same medium, and a 10% suspension of the cells in the Eagle medium was prepared.
The effect of giniquine on biosynthesis of DNA, RNA and protein in the cells of Ehrlich ascitic tumor was assessed on the basis of incorporation of cells of specific labeled precursors into acid-insoluble fraction: 2-^14 C-thymidine, 2-^14 C-uridine and 2-^14 C-leucine, respectively.
The incubating medium contained, in a total volume of 2 ml, 100 mg of tumoral cells in the form of suspension, Eagle medium (pH 7.4), giniquine in a concentration of 1.10^-4 m and labeled precursors of nucleic acids and protein with a radioactivity corresponding to 0.1 μc. Control samples contained a corresponding volume of distilled water to replace the preparation solution.
The incubation was conducted in Warburg apparatus vessels at 37° C. for one hour. After the incubation, tumoral cells were fixed by adding cool 10% trichloracetic acid to the incubating medium (1:1). Concurrently a control sample without incubation was prepared, to which, before adding the cell suspension, was added 10% trichloracetic acid in the same ratio.
The precipitated cells were extracted for 20 minutes at 0° C. with 5% trichloroacetic acid. The samples were then filtered through millipore filters (HUFS, pore diameter 0.4 μ). The precipitate on the filter was washed twice with 5 ml of cool 5% trichloracetic acid and once with 5 ml of toluene. The filters were dried in the air and transferred into quartz flasks containing 10 ml of toluene scintillator. The radioactivity was determined by means of a liquid scintillation counter. The results were expressed in percent of the control.
It will be apparent from the Table that under the action of giniquine in a concentration of 1.10^-4 M the incorporation of labeled precursors of DNA, RNA and protein in acid-insoluble fraction of cells of Ehrlich ascitic tumor is disturbed compared to the control. […] The results of in vitro experiments study of the effect of 0.3 and 0.1% solutions of giniquine on the incorporation of 2-^14 C-thymidine in the acid-insoluble fraction (DNA) of Erlich cells are presented in Table 6.

[4] = 24 hours, intraperitoneal 28 mg/kg

CCN(CC)CCCC(C)NC(=O)c1cc(C=Cc2ccc([N+](=O)[O-])o2)nc2ccccc12 (stereo not drawn) [giniquine, 2-[2'-(5"-nitrofuryl-2")vinyl]quinoline-4-carboxylic acid (α-methyl-δ-diethylaminobutyl)amide triphosphate]
Incorporation of 2-^14 C-leucine in protein ([1]; 1 h): 59.0 % of control
Incorporation of 2-^14 C-thymidine in DNA ([1]; 1 h): 43.0 % of control
Incorporation of 2-^14 C-leucine in protein ([1]; 3 h): 14.0 % of control
Incorporation of 2-^14 C-thymidine in DNA ([1]; 3 h): 30.0 % of control
suppression of incorporation of 2-^14 C-thymidine in DNA ([1]; 24 hours, 28 mg/kg): 82%
suppression of incorporation of 2-^14 C-uridine in RNA ([1]; 24 hours, 28 mg/kg): 42%
Incorporation of specific precursors, DNA [1, 4]: 18.0 % of control
Incorporation of specific precursors, Protein [1, 4]: 54.0 % of control
Incorporation of specific precursors, RNA [1, 4]: 58.0 % of control
inhibition at 100 mg/kg ([1]; 1 h, one hour, 100 mg/kg, read-out: inhibition of biosynthesis of DNA): 57%
inhibition at 100 mg/kg ([1]; 3 h, three hours, 100 mg/kg, read-out: inhibition of biosynthesis of DNA): 70%
inhibition at 100 mg/kg ([1]; 3 h, three hours, 100 mg/kg, read-out: inhibition of biosynthesis of protein): 86%
biosynthesis processes in tumor cells (in words) ([1]; in vivo): the same effect on biosynthesis processes in tumor cells
suppression of biosynthesis of protein ([1]; one hour, 100 mg/kg): 41%
Max. life prolong. ([2]; BDF1 female mice, intraperitoneal, days 1,2,3,4,7, optimum daily dose 6.0 mg/kg): 5%
sensitivity (in words) ([2]; L-5178Y): practically insensitive
Incorporation of 2-^14 C-leucine in protein (Liver; 1 h): 127.0 % of control
Incorporation of 2-^14 C-thymidine in DNA (Liver; 1 h): 106.0 % of control
Incorporation of 2-^14 C-leucine in protein (Liver; 3 h): 96.0 % of control
Incorporation of 2-^14 C-thymidine in DNA (Liver; 3 h): 93.0 % of control
Incorporation of specific precursors, DNA (Liver; [4]): 190.0 % of control
Incorporation of specific precursors, Protein (Liver; [4]): 112.0 % of control
Incorporation of specific precursors, RNA (Liver; [4]): 124.0 % of control
inhibition at 100 mg/kg (Liver; 3 h, 100 mg/kg, read-out: inhibition of biosynthesis of DNA): 7%
inhibition at 100 mg/kg (Liver; 3 h, 100 mg/kg, read-out: inhibition of biosynthesis of protein): 4%
inhibition of biosynthesis of protein (in words) (Liver; one hour, 100 mg/kg): not observed or inappreciable
stimulation of biosynthesis of DNA (Liver; one hour, 100 mg/kg): 6%
Incorporation of 2-^14 C-thymidine in DNA in % of control ([3]; 0.1% solution): 2.4 % of control
suppression of biosynthesis of DNA in tumor cells (in words) ([3]; 0.3% solution): practically complete suppression
activity at 100 µM ([3]; Mus musculus, Ehrlich, read-out: Incorporation of 2-^14 C-leucine in percent of control): 86%
activity at 100 µM ([3]; Mus musculus, Ehrlich, read-out: Incorporation of 2-^14 C-thymidine in percent of control): 61%
activity at 100 µM ([3]; Mus musculus, Ehrlich, read-out: Incorporation of 2-^14 C-uridine in percent of control): 52%
activity at 0.1 % ([3]; Mus musculus, Ehrlich, 0.1% solution, read-out: Incorporation of 2-^14 C-thymidine in DNA in % of control): 2.4%
activity at 0.3 % ([3]; Mus musculus, Ehrlich, 0.3% solution, read-out: Incorporation of 2-^14 C-thymidine in DNA in % of control): 0.7%
incorporation of labeled precursors in DNA, RNA and protein (in words) ([3]; in vitro): decelerates the incorporation of labeled precursors in DNA, RNA and protein
